One assay concerns the target T1, PDK1 kinase (Homo sapiens, UniProt O15530).
T1 sequence (O15530 1-556): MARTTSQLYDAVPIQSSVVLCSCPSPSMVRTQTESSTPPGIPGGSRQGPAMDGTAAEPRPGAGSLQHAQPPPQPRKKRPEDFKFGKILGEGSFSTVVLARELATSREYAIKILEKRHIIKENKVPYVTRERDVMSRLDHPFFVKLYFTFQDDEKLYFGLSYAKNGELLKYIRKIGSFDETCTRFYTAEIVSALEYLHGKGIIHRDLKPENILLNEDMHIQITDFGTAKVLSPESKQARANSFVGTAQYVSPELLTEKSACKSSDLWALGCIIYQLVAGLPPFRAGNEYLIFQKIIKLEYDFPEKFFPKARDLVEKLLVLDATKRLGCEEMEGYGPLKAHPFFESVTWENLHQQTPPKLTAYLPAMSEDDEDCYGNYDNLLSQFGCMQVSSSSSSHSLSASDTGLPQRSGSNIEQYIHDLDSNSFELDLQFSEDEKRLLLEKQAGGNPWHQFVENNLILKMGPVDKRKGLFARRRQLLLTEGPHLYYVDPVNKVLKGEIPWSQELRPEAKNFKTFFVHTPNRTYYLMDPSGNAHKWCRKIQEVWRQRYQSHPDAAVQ
Description: PDK1 Kinase Alpha Screen Assay. Conditions: PDK1 Kinase Alpha Screen Assay; read-out: PDK1 IC50. The assay is classed as biochemical. The method, boiled down: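 AlphaScreen readout: phospho-peptide captured by phospho-(Ser/Thr) PKA substrate antibody (0.3 mg/ml) on protein A acceptor beads, biotin peptide on streptavidin donor beads (25 μg/ml each), overnight at room temperature. Kinase step used 50 nM PDK1-4 peptide, 10 uM ATP, 3-18 hours.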

Another assay concerns PC-3 cells. In words: Cell Proliferation Assay (Cell Titer Glo), PC-3 cell line. The assay is classed as cell-based. Conditions: PC3, read-out: CPEC50 PC3. The method, boiled down: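 Cell Titer Glo luminescence, read after fresh medium replaced the dosing medium, gave viability of PC-3 cells plated at 1000 cells/well. Compounds, 1:3 serially diluted in DMSO at 500× and then in medium, were added after 3-5 h adhesion and incubated 3 days at 37° C.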
Background: Cellular ATP, detected with luciferase, serves as a proxy for viable cell number.

[1] abbreviates: Homo sapiens, PC-3, Cell Proliferation Assay.

Where two headings read alike, the source gives them in different places.

For `CS(=O)(=O)CCNC(=O)c1ccc(Nc2ncc3cccc(OC4CCNCC4)c3n2)cc1F` [Compound 493, 2-fluoro-N-(2-(methylsulfonyl)ethyl)-4-(8-(piperidin-4-yloxy)quinazolin-2-ylamino)benzamide], the IC50 on PDK1 kinase is below 5 µM. Further, in the assay with PC-3 cells (setting [1]), the EC50 was below 5 µM.

On to `O=C1CN(C(=O)c2ccc(Nc3ncc4cccc(OC5CCNCC5)c4n3)cc2F)CCN1` [Compound 494, 4-(2-fluoro-4-(8-(piperidin-4-yloxy)quinazolin-2-ylamino)benzoyl)piperazin-2-one], for which, at PDK1 kinase, the IC50 is below 5 µM. Moreover, the EC50 in the assay on PC-3 cells (setting [1]) was in the range of 5 to 10 µM.

For the compound `O=C(NC1CCCC1)c1ccc(Nc2ncc3cccc(OC4CCNCC4)c3n2)cc1F` [Compound 495, N-cyclopentyl-2-fluoro-4-(8-(piperidin-4-yloxy)quinazolin-2-ylamino)benzamide], the half-inhibitory concentration (IC50) on PDK1 kinase was below 5 µM. The EC50 with PC-3 cells (setting [1]) was below 5 µM.

In the case of `CC(=O)NCCNC(=O)c1ccc(Nc2ncc3cccc(OC4CCNCC4)c3n2)cc1F` [Compound 496, N-(2-acetamidoethyl)-2-fluoro-4-(8-(piperidin-4-yloxy)quinazolin-2-ylamino)benzamide], the IC50 at PDK1 kinase is below 5 µM. Also, the EC50 with PC-3 cells (setting [1]) was in the range of 5 to 10 µM.

As to `O=C(NCCN1CCCC1)c1ccc(Nc2ncc3cccc(OC4CCNCC4)c3n2)cc1F` [Compound 497, 2-fluoro-4-(8-(piperidin-4-yloxy)quinazolin-2-ylamino)-N-(2-(pyrrolidin-1-yl)ethyl)benzamide], on PDK1 kinase, the 50% inhibitory concentration (IC50) was below 5 µM. In the assay on PC-3 cells (setting [1]), the EC50 was below 5 µM.

For `O=C(c1ccc(Nc2ncc3c(C(F)(F)F)ccc(OC4CCNCC4)c3n2)cc1)N1CCOCC1` [Compound 501, morpholino(4-(8-(piperidin-4-yloxy)-5-(trifluoromethyl)quinazolin-2-ylamino)phenyl)methanone], the half-inhibitory concentration (IC50) at PDK1 kinase is below 5 µM. Further, the EC50 in the assay with PC-3 cells (setting [1]) lay in the range of 5 to 10 µM.

In the case of `FC(F)(F)c1ccc(OC2CCNCC2)c2nc(Nc3ccc(N4CCOCC4)cc3)ncc12` [Compound 502, N-(4-morpholinophenyl)-8-(piperidin-4-yloxy)-5-(trifluoromethyl)quinazolin-2-amine], at PDK1 kinase, the IC50 was below 5 µM. The EC50 with PC-3 cells (Cell Proliferation Assay) was below 5 µM.

Regarding `COc1c(NC2CCN(C)CC2)cc(Cl)c2cnc(Nc3ccc(C(=O)N4CCOCC4)cc3)nc12` [Compound 503, (4-(5-chloro-8-methoxy-7-(1-methylpiperidin-4-ylamino)quinazolin-2-ylamino)phenyl)(morpholino)methanone], the IC50 on PDK1 kinase was below 5 µM. Further, the EC50 with PC-3 cells (setting [1]) lay in the range of 5 to 10 µM.

With `CC(C)N1CCC(Oc2cccc3cnc(N)nc23)CC1` [Compound 523, 8-(1-isopropylpiperidin-4-yloxy)quinazolin-2-amine], the IC50 at PDK1 kinase lay in the range of 5 to 10 µM. In addition, the EC50 with PC-3 cells (setting [1]) was 5 to 10 µM.

In the case of `Nc1ncc2cccc(O)c2n1` [Compound 524, 2-aminoquinazolin-8-ol], the IC50 at PDK1 kinase was 10 to 25 µM. Further, the EC50 with PC-3 cells (setting [1]) is below 5 µM.

On to `CC(C)N1CCC(Oc2cccc3cnc(Nc4cccc(NC(=O)N5CCCC5)c4)nc23)CC1` [Compound 525, N-(3-(8-(1-isopropylpiperidin-4-yloxy)quinazolin-2-ylamino)phenyl)pyrrolidine-1-carboxamide], for which, on PDK1 kinase, the IC50 was below 5 µM. For the same compound, the EC50 in the assay on PC-3 cells (setting [1]) is below 5 µM.

On to `COc1cc(Nc2ncc3cccc(OC4CCN(C(C)C)CC4)c3n2)cc(OC)c1` [Compound 526, N-(3,5-dimethoxyphenyl)-8-(1-isopropylpiperidin-4-yloxy)quinazolin-2-amine], for which, on PDK1 kinase, the IC50 was below 5 µM. For the same compound, the EC50 in the assay on PC-3 cells (setting [1]) is 5 to 10 µM.

For `CC(C)N1CCC(Oc2cccc3cnc(Nc4cccc(F)c4)nc23)CC1` [Compound 527, N-(3-fluorophenyl)-8-(1-isopropylpiperidin-4-yloxy)quinazolin-2-amine], the IC50 on PDK1 kinase is below 5 µM. In the assay on PC-3 cells (setting [1]), the EC50 is below 5 µM.

Take `CC(C)N1CCC(Oc2cccc3cnc(Nc4cccc(Cl)c4)nc23)CC1` [Compound 528, N-(3-chlorophenyl)-8-(1-isopropylpiperidin-4-yloxy)quinazolin-2-amine]: the IC50 on PDK1 kinase is below 5 µM. The EC50 with PC-3 cells (setting [1]) was below 5 µM.

Turning to `CC(C)N1CCC(Oc2cccc3cnc(Nc4cccc(C(F)(F)F)c4)nc23)CC1` [Compound 529, 8-(1-isopropylpiperidin-4-yloxy)-N-(3-(trifluoromethyl)phenyl)quinazolin-2-amine], the 50% inhibitory concentration (IC50) at PDK1 kinase was below 5 µM. Further, in the assay on PC-3 cells (setting [1]), the EC50 is below 5 µM.

For the compound `CC(C)N1CCC(Oc2cccc3cnc(Nc4cccc(C#N)c4)nc23)CC1` [Compound 530, 3-(8-(1-isopropylpiperidin-4-yloxy)quinazolin-2-ylamino)benzonitrile], the IC50 at PDK1 kinase was below 5 µM. In addition, in the assay with PC-3 cells (setting [1]), the EC50 was below 5 µM.

`COc1cccc(Nc2ncc3cccc(OC4CCN(C(C)C)CC4)c3n2)c1` [Compound 531, 8-(1-isopropylpiperidin-4-yloxy)-N-(3-methoxyphenyl)quinazolin-2-amine]: on PDK1 kinase, the IC50 is below 5 µM. The EC50 in the assay with PC-3 cells (setting [1]) was in the range of 5 to 10 µM.

As for `CC(C)N1CCC(Oc2cccc3cnc(Nc4ccccc4F)nc23)CC1` [Compound 532, N-(2-fluorophenyl)-8-(1-isopropylpiperidin-4-yloxy)quinazolin-2-amine], the IC50 on PDK1 kinase fell in the range of 5 to 10 µM. Further, the EC50 with PC-3 cells (setting [1]) fell in the range of 5 to 10 µM.

Turning to `CC(C)N1CCC(Oc2cccc3cnc(Nc4cc(F)cc(F)c4)nc23)CC1` [Compound 533, N-(3,5-difluorophenyl)-8-(1-isopropylpiperidin-4-yloxy)quinazolin-2-amine], the IC50 on PDK1 kinase is below 5 µM. For the same compound, in the assay with PC-3 cells (setting [1]), the EC50 was below 5 µM.

As to `CC(C)N1CCC(Oc2cccc3cnc(Nc4ccccc4)nc23)CC1` [Compound 534, 8-(1-isopropylpiperidin-4-yloxy)-N-phenylquinazolin-2-amine], at PDK1 kinase, the IC50 was below 5 µM. In the assay on PC-3 cells (setting [1]), the EC50 is below 5 µM.

Consider `COc1ccc(Nc2ncc3cccc(OC4CCN(C(C)C)CC4)c3n2)cc1` [Compound 535, 8-(1-isopropylpiperidin-4-yloxy)-N-(4-methoxyphenyl)quinazolin-2-amine], for which the IC50 on PDK1 kinase is below 5 µM. In the assay with PC-3 cells (setting [1]), the EC50 was 5 to 10 µM.

As to `CC(C)N1CCC(Oc2cccc3cnc(Nc4ccc(C#N)cc4)nc23)CC1` [Compound 536, 4-(8-(1-isopropylpiperidin-4-yloxy)quinazolin-2-ylamino)benzonitrile], the IC50 at PDK1 kinase is below 5 µM. In addition, the EC50 in the assay with PC-3 cells (setting [1]) was below 5 µM.

Regarding `CC(C)N1CCC(Oc2cccc3cnc(Nc4ccc(C(=O)N5CCOCC5)cc4)nc23)CC1` [Compound 537, (4-(8-(1-isopropylpiperidin-4-yloxy)quinazolin-2-ylamino)phenyl)(morpholino)methanone], at PDK1 kinase, the IC50 is below 5 µM. Also, the EC50 in the assay with PC-3 cells (setting [1]) lay within 5 to 10 µM.

For `O=C(c1ccc(Nc2ncc3cccc(OC4CCNCC4)c3n2)cc1)N1CCOCC1` [Compound 538, morpholino(4-(8-(piperidin-4-yloxy)quinazolin-2-ylamino)phenyl)methanone], the IC50 at PDK1 kinase is below 5 µM. For the same compound, the EC50 in the assay on PC-3 cells (setting [1]) is below 5 µM.

Consider `CC(=O)N1CCC(Oc2cccc3cnc(Nc4ccc(S(N)(=O)=O)cc4)nc23)CC1` [Compound 539, 4-(8-(1-acetylpiperidin-4-yloxy)quinazolin-2-ylamino)benzenesulfonamide], for which the IC50 on PDK1 kinase is below 5 µM. For the same compound, the EC50 with PC-3 cells (setting [1]) was below 5 µM.

With `CS(=O)(=O)N1CCC(Oc2cccc3cnc(Nc4ccc(S(N)(=O)=O)cc4)nc23)CC1` [Compound 540, 4-(8-(1-(methylsulfonyl)piperidin-4-yloxy)quinazolin-2-ylamino)benzenesulfonamide], on PDK1 kinase, the IC50 was below 5 µM. The EC50 with PC-3 cells (setting [1]) was below 5 µM.

Turning to `c1cc(Nc2ncc3cccc(OC4CCNCC4)c3n2)cc(N2CCOCC2)c1` [Compound 545, N-(3-morpholinophenyl)-8-(piperidin-4-yloxy)quinazolin-2-amine], the IC50 on PDK1 kinase is below 5 µM. For the same compound, the EC50 in the assay with PC-3 cells (setting [1]) is below 5 µM.

`c1cc(OC2CCNCC2)c2nc(Nc3ccc(N4CCOCC4)cc3)ncc2c1` [Compound 546, N-(4-morpholinophenyl)-8-(piperidin-4-yloxy)quinazolin-2-amine]: the IC50 at PDK1 kinase is below 5 µM. Moreover, the EC50 with PC-3 cells (setting [1]) is below 5 µM.

Consider `COc1ccc(NC(C)=O)cc1Nc1ncc2cccc(OC3CCNCC3)c2n1` [Compound 547, N-(4-methoxy-3-(8-(piperidin-4-yloxy)quinazolin-2-ylamino)phenyl)acetamide], for which the IC50 at PDK1 kinase fell in the range of 5 to 10 µM. Moreover, the EC50 in the assay on PC-3 cells (setting [1]) fell in the range of 5 to 10 µM.

For `CN1CCN(c2ccc(Nc3ncc4cccc(OC5CCNCC5)c4n3)cc2)CC1` [Compound 548, N-(4-(4-methylpiperazin-1-yl)phenyl)-8-(piperidin-4-yloxy)quinazolin-2-amine], the IC50 at PDK1 kinase is below 5 µM. Moreover, the EC50 with PC-3 cells (setting [1]) was below 5 µM.

For the compound `CNS(=O)(=O)c1ccc(Nc2ncc3ccc(O)c(C4CCN(C(C)C)CC4)c3n2)cc1` [Compound 549], the IC50 at PDK1 kinase was below 5 µM. Further, the EC50 with PC-3 cells (setting [1]) is below 5 µM.

By IC50 is commonly meant the concentration at which inhibition is half-maximal.

The record behind these values is patent US7932262B2 (Novartis AG, priority 2006, dated 2011).
